This note sets out measurements from ChEMBL document CHEMBL1201862, “PubChem BioAssay data set” (2004).

Where a name gives a salt, the structure may show the parent alone. Activity calls are given as the source filed them. Some results are limits rather than exact numbers.

Experiment [1] addresses T1, Short transient receptor potential channel 4 (Mus musculus, UniProt Q9QUQ5).
T1 sequence (Q9QUQ5 whole entry): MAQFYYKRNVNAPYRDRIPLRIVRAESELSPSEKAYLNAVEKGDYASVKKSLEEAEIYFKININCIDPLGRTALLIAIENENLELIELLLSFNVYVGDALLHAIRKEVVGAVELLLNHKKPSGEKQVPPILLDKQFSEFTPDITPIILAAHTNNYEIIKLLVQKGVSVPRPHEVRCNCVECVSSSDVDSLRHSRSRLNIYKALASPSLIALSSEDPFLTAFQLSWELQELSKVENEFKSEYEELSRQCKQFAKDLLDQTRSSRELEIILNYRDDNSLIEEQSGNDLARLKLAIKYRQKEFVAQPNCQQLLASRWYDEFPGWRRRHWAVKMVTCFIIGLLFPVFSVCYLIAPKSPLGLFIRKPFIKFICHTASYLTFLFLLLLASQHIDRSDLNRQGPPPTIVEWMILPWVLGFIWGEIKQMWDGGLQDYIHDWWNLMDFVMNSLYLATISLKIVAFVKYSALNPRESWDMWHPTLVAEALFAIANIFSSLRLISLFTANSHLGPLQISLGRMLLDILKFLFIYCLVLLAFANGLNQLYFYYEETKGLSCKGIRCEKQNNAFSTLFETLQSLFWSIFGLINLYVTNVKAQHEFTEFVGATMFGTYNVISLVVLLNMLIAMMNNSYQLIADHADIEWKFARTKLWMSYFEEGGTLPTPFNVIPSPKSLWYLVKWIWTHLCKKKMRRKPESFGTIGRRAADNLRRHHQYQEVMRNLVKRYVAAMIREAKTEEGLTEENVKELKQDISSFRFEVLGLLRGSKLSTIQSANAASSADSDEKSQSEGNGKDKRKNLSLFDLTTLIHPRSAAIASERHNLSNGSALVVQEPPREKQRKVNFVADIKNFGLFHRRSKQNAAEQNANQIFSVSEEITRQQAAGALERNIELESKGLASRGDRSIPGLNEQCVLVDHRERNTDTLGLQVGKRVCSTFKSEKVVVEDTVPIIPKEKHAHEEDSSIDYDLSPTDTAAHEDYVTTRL
Put plainly: block of DAMGO-driven TRPC4 calcium entry – cell-based, HEK293 TRPC4/mu-opioid, Fluo-4 calcium, dose response (AID 434942).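 Note: potency of inhibitors blocking the TRPC4 calcium response.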 It is filed as functional.

Experiment [2] deals with T2, Polyadenylate-binding protein 1 (Homo sapiens, UniProt P11940). Put plainly: MLLE domain peptide-binding blockers, IC50 – biochemical, fluorescence polarization, FITC-PAM2 peptide, dose response (AID 602259). The settings on record: read-out: IC50_Mean. In kind it is functional. A general note: Polarisation of emitted light reports the rotation of a fluorescent probe.
T2 sequence (P11940 whole entry, the tested form may be a part): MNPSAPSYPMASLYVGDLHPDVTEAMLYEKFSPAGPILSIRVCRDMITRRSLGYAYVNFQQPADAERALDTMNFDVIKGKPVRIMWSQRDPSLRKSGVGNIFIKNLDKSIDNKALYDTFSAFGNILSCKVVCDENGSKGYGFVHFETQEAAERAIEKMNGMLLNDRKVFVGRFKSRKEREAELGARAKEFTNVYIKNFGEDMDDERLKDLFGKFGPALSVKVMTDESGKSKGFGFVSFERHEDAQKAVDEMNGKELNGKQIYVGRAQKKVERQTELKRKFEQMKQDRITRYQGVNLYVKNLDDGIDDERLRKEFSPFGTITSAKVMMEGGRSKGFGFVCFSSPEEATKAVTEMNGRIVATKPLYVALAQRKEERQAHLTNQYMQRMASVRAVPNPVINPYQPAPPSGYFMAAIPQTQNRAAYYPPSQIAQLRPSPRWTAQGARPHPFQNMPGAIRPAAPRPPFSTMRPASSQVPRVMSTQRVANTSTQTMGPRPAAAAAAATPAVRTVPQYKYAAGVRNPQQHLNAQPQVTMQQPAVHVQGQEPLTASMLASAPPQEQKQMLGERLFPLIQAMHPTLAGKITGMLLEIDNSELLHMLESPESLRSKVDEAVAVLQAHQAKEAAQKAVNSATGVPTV

A short description of experiment [3]: viability of HCT116 lacking mutant beta-catenin – cell-based, human colon tumor, dose response (AID 1045).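 Note: HCT116 colon tumor cells with beta catenin knocked out; cells exposed to compound for 60 hours.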 In kind it is functional.
Experiment [4] is described as follows: A cytotoxicity screen of small molecule inhibitors of the PhoP region in Salmonella typhi identified in the primary screen. [Related pubchem assays: 1850, 1864, 1985 ]. In kind it is functional.
Experiment [5] can be described thus: viability of PTEN-deleted HCT116 cells – cell-based, HCT116 PTEN knockout, dose response (AID 1047).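 Note: HCT116 colon tumor cells with PTEN knocked out; cells exposed to compound for 60 hours before readout; potency for loss of cell viability measured by luminescence.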 It is filed as functional.
Experiment [6] deals with T2, Polyadenylate-binding protein 1. Put plainly: MLLE binding blockers, Cy5 peptide tracer – biochemical, fluorescence polarization, Cy5-PAM2 peptide, secondary, miRNA deadenylation inhibitor project, dose response (AID 602260). It is filed as functional. The settings on record: read-out: IC50_Mean.
Experiment [7] concerns the target T3, DNA repair protein RAD52 homolog (Homo sapiens, UniProt P43351).
T3 sequence (P43351 whole entry): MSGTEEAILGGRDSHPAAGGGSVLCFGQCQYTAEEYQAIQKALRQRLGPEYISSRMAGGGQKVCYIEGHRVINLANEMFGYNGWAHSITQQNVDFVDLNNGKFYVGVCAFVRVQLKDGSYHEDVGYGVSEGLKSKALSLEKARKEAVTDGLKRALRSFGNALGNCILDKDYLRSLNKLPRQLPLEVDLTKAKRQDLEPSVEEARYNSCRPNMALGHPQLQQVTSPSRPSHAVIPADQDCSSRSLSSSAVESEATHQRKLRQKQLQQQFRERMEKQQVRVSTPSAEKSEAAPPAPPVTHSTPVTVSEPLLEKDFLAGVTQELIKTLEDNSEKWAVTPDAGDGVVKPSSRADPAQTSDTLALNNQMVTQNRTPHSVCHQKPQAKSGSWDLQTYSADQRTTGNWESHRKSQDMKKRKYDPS
It is filed as functional, biochemical.

Experiment [8] in a line: Trypanosoma cruzi growth suppression in host cells – NIH3T3 host cells, beta-gal luminescence, confirmation (AID 2044).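 Note: intracellular parasites grown in NIH/3T3 mouse fibroblasts as host cells; luminescent beta-galactosidase reporter signal from transgenic T. cruzi replicating inside host cells; inhibitors lower the luminescence signal.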 It is filed as functional, cell-based.
Experiment [9] in a line: NIH3T3 cell viability loss – ATP luminescence, mouse fibroblasts, counter-screen, dose response (AID 2010).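 Note: cells exposed to compound for about 90 hours before reading.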 In kind it is functional, cell-based. (Counterscreens check selectivity or assay interference.)
Experiment [10] in a line: Luminescence Cell-Based Dose Response HTS to Identify Inhibitors of 5'UTR Stem-Loop Driven Prion Protein mRNA Translation in H4 Neuroglioblastoma Cells. [Related pubchem assays: 1827 (Project Summary), 1813 (Primary HTS)]. In kind it is functional.
Experiment [11] can be described thus: luciferase reporter signal suppression in cells – H4 neuroglioma cells, luminescence, dose response (AID 1990). In kind it is functional, cell-based. For orientation: A reporter such as luciferase makes a cellular process visible.
A short description of experiment [12]: alpha-synuclein stem-loop luciferase translation blockers – H4 neuroglioma cells, luminescence, confirmation (AID 1988). In kind it is functional, cell-based.
Experiment [13] has as its target T4, RNA-binding protein pos-1 (Caenorhabditis elegans, UniProt G5EF15).
T4 sequence (G5EF15 whole entry): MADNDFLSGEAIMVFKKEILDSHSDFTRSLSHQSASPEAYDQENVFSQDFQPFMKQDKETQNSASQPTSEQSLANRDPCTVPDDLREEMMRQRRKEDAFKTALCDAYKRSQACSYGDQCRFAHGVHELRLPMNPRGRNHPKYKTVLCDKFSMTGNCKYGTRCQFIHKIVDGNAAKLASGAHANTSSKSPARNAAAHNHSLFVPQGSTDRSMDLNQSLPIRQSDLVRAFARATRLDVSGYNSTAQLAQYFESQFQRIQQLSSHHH
The experiment can be described thus: disruptors of C. elegans POS-1 RNA interaction – biochemical, fluorescence polarization, dose response (AID 1964).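 Note: purified POS-1 fused to maltose binding protein made in E. coli; potency of compounds blocking POS-1 binding to fluorescent RNA.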

The target in experiment [14] is T5, Zinc finger protein mex-5 (Caenorhabditis elegans, UniProt Q9XUB2).
T5 sequence (Q9XUB2 whole entry): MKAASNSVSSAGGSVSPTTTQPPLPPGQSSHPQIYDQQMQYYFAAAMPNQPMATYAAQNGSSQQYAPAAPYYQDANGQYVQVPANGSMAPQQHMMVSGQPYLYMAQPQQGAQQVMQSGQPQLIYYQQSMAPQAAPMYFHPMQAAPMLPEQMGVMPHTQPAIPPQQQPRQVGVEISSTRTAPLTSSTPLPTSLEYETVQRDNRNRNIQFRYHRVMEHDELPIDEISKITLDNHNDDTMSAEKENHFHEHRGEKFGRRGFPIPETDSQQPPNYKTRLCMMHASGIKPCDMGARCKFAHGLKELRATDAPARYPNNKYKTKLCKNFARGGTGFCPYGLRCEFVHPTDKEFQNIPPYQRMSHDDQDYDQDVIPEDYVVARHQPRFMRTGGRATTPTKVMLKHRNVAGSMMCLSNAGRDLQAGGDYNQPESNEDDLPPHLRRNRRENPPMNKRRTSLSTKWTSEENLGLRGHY
Put plainly: potency of MEX-5 RNA-binding blockers – biochemical, C. elegans, fluorescence polarization, dose response (AID 1960).

The next experiment deals with T6, Caspase-6 (Homo sapiens, UniProt P55212).
T6 sequence (P55212 whole entry): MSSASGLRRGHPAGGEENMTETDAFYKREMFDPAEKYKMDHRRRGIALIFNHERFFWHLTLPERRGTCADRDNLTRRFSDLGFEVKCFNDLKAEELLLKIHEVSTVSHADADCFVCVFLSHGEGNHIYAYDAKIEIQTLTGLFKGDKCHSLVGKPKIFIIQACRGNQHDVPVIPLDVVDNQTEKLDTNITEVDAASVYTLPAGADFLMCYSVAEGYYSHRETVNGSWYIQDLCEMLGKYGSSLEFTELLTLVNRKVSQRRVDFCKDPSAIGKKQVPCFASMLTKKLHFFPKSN
The experiment can be described thus: inhibition of CASP6 peptide cleavage – biochemical, VEID-R110 fluorescence, cherry-pick, dose response (AID 720632).

Experiment [15] can be described thus: THP-1 cell cytotoxicity, dose response, cytotoxicity control for non-replicating M. tuberculosis project (AID 489025). In kind it is functional.
Another experiment is described as follows: cells. In kind it is functional.
The target of experiment [16] is FAD-linked sulfhydryl oxidase ALR (Homo sapiens, UniProt P55789). Put plainly: ALR-catalysed DTT oxidation blockers – biochemical, H2O2 detection, luminescence, cherry-pick, dose response (AID 493248).
FAD-linked sulfhydryl oxidase ALR, sequence (P55789 whole entry): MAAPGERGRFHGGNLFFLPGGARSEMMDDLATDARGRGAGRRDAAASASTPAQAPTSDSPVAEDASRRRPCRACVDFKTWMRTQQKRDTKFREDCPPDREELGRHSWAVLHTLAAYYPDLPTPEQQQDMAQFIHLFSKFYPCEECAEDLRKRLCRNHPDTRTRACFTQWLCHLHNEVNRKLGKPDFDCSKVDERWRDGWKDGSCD
Experiment [17] can be described thus: microbe, parasite or virus in culture. Conditions: Mycobacterium tuberculosis. In kind it is functional.
Experiment [18] concerns the target Luciferin 4-monooxygenase (Photinus pyralis, UniProt P08659). Put plainly: inhibition of purified Photinus pyralis luciferase – biochemical, luminescence, dose response (AID 1891).
The nature of experiment [19]: Luminescence Cell-Based Dose Confirmation HTS to Identify Inhibitors of Platelet Dense Granule Release. [Related pubchem assays: 1663 (Primary HTS), 1678 (Summary of Project)]. It is filed as functional.

Luciferin 4-monooxygenase, sequence (P08659 whole entry): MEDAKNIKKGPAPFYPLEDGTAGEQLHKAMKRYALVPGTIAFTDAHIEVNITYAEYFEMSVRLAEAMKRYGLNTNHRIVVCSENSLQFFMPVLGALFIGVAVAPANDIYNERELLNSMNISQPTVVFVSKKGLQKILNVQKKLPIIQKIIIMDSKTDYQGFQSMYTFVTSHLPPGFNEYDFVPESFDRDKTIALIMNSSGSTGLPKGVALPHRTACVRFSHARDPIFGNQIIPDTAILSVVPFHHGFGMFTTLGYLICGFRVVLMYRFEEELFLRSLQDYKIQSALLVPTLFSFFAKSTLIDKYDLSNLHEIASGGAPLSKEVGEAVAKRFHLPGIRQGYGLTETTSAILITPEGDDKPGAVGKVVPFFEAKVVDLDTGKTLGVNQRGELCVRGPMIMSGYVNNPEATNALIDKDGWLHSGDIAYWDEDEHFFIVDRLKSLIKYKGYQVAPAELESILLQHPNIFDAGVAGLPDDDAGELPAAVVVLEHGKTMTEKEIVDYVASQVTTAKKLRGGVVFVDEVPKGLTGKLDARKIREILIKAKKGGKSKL

By EC50 is commonly meant the concentration needed to bring the measured effect to its halfway point. Consider `O=S(=O)(c1ccccc1)N1CCN(C/C=C/c2ccccc2)CC1`, for which, in experiment [1], the EC50 was 5.96 µM (active).

With `NC(=O)SCC(=O)Nc1ccc(Cl)c(Cl)c1`, the IC50 in experiment [2] and in experiment [6] was > 66 µM (inactive) each time. Further, the EC50 in [3] is 31 µM (active); in experiment [4], > 50 µM (active); in experiment [5] it was 50.8 µM (active).

For the molecule `Cc1cccc(-n2nc(C)c3c(C(=O)O)cc(-c4cccs4)nc32)c1`, the EC50 in experiment [1] was 2.99 µM (active).

One may read the AC50 as the concentration at which the activity in the assay is half-maximal. In the case of `Cc1cc(N)ccc1NC(=O)CN1CCCC1`, the AC50 in experiment [7] is 1.73 µM (active).

As for `CCC(Sc1nc2cc[nH]cc-2n1)C(=O)Nc1ccc(C)c(Cl)c1` (stereo not given), the EC50 in experiment [8] was 2.06 µM (active); in experiment [4] it was > 50 µM (active); in experiment [9], > 60 µM (not active).

For `CCOc1c(Cl)cc(CNCC(O)c2ccccc2)cc1OC` (stereo not given), the EC50 in experiment [1] was 2.11 µM (active).

Consider `OCCN1CCN(CC(O)COc2ccc(C34CC5CC(CC(C5)C3)C4)cc2)CC1` (stereo not given), for which the concentration giving a half-maximal response (EC50) in [10], in experiment [11] and in [12] was > 120 µM (not active) in each case. In addition, the AC50 in experiment [7] was 16 µM (active).

Regarding `Cc1cccc(NC(=O)c2sc3nc(-c4ccccc4)cn3c2C)n1`, the results for the EC50 in experiment [13], in [4] and in [14] were > 300 µM (not active), > 50 µM (active) and > 300 µM (not active), respectively.

Consider `CC[C@@H](CO)NC(=O)[C@@H]1C=C2c3cccc4[nH]cc(c34)C[C@H]2N(C)C1` [METHYLERGONOVINE MALEATE], for which the half-maximal activity concentration (AC50) on Caspase-6 was 7.04 µM (active).

As for `COc1ccc(CN2CCN(C(=O)c3ccc(F)cc3)CC2)c(OC)c1`, the EC50 in experiment [1] is 3.76 µM (active).

For `Cc1ccc2c(c1)N(C(=O)CCC(=O)Nc1ccccc1Cl)CC(C)O2` (stereo not given), in experiment [1], the EC50 was 1.5 µM (active).

Consider `Cc1cc(-c2c(C)[nH]n(-c3ccccc3)c2=O)[nH]n1`, for which the figures for the CC50 in experiment [15] and in experiment [17] were > 40 µM (active) and 33 µM (active), respectively. The IC50 in the experiment “cells” was 5.35 µM (active). In addition, the AC50 in experiment [16] was 5.41 µM (active).

Consider `O=C(/C=C/c1ccc(O)cc1)c1ccccc1` [4-HYDROXYCHALCONE], for which the EC50 in experiment [4] was > 50 µM (active); in experiment [18] it was < 0.088 µM (active); in experiment [19] it was < 0.701 µM (active).

`O=C(Cc1ccccc1)N1CCN(Cc2cccc(Br)c2)CC1`: the EC50 in experiment [1] is 13.3 µM (active).

For the molecule `C[C@](N)(Cc1ccc(O)c(O)c1)C(=O)O` [METHYLDOPA], the AC50 at Caspase-6 is 39.2 µM (active).

Take `CCCC(c1nnnn1Cc1ccc(OC)cc1)N1CCN(c2ccccc2OC)CC1` (stereo not given): in [4], the EC50 was > 50 µM (active).

As to `NC(=O)C1C(=O)c2ccccc2C1(C[N+](=O)[O-])c1ccccc1` (stereo not given), the AC50 at Caspase-6 was 38.1 µM (active).

Turning to `COc1ccc(OC)c(S(=O)(=O)N2CCC(C(=O)NCCc3ccc(OC)c(OC)c3)CC2)c1`, the EC50 in experiment [4] was > 50 µM (active).

Take `Cn1c(N)c(N=O)c(=O)n(C)c1=S`: the AC50 on Caspase-6 is 6.37 µM (active).
